{
  "source": "patent US9187351B2",
  "about": "“Water treatment” (KING TECHNOLOGY INC., priority 2004, dated 2015)",
  "key": {"[1]": {"conditions": "cited from earlier work"}, "bacteria in the pool": {"test_system": "bacteria in the pool", "experiment": "32,000 gallon outdoor pool sanitized with FROG minerals, chlorine and DMH; bacteria monitored over three months", "conditions": "about 10 ppm to 12 ppm DMH added to pool treated with FROG minerals (silver chloride on limestone carrier) and chlorine; free chlorine as low as 0.1 ppm; three month period", "protocol": "A 32,000 gallon outdoor pool was sanitized using commercially available FROG™ minerals and chlorine. The FROG™ Minerals included silver chloride on a limestone carrier. In addition to the conventional sanitizing treatment using silver chloride and chlorine sufficient DMH was added to the pool to bring the DMH content of the pool to a level of about 10 ppm to 12 ppm DMH in the pool. The free chlorine, total chlorine, pH and the bacteria in the pool were monitored over a three month period. During the period both humans and animals swam in the pool."}, "[2]": {"experiment": "levels of dissolved silver with halogenated hydantoins and a source of silver", "assay_type": "physicochemical", "from_the_text": "Hydantoin structures are also known as complexing agents in silver-plating processes (R. J. Morrissey, U.S. Patent Application Publication no. 2005/0183961). […] While not fully understood it is believed that the aforementioned increased in solubility is due to a soluble complex or association between silver and hydantoin ring structures since it has been found the silver remains soluble to a higher degree than expected thus making more silver ions available for killing harmful microorganism.\nDMH is a chemical derivative of hydantoin comprising of a hydantoin ring with two methyl groups attached at the number five position of the ring. DMH is a component of Bromochlordimethyl hydantoin (BCDMH), organic source bromine utilized for disinfecting spa water. […] Additional research performed by the Applicant seems to indicate that the DMH portion of the BCDMH molecule alone may be responsible for the increased solubility of silver. The mechanism of increased silver solubility appears to involve the formation of a DMH/silver complex that has a higher solubility in water than silver salts such as […] or silver chloride. It is should be noted that the antimicrobial activity tends to increase with soluble silver concentration."}, "microbial growth": {"test_system": "microbial growth", "experiment": "single microbiological assay of the antimicrobial activity of the synthesized DMH/Ag complex", "assay_type": "cell-based"}, "[3]": {"conditions": "used in conjunction with a source of silver"}},
  "data": [
    {"compound": "O=C1CNC(=O)N1", "note": "[Hydantoin]", "values": [
      {"measurement": "solubility in water", "setting": "[1]", "value": "slightly soluble in water"}
    ]},
    {"compound": "CC1(C)NC(=O)NC1=O", "note": "[DMH, 5,5-dimethylhydantoin]", "values": [
      {"measurement": "total bacteria count", "setting": "bacteria in the pool", "value": "zero"}
    ]},
    {"compound": "CC1(C)C(=O)N(Cl)C(=O)N1Br", "note": "[BCDMH, 1-bromo-3-chloro-5,5dimethylhydantoin]", "values": [
      {"measurement": "levels of dissolved silver", "setting": "[2]; combined with silver ions in spa water containing bromine", "value": "higher than would be anticipated"},
      {"measurement": "levels of dissolved silver", "setting": "[2]; [3]", "value": "tend to increase levels of dissolved silver"}
    ]},
    {"compound": "CC1(C)C(=O)N(Cl)C(=O)N1Cl", "note": "[DCDMH, 1,3 dichloro-5,5 dimethylhydantoin]", "values": [
      {"measurement": "levels of dissolved silver", "setting": "[2]; [3]", "value": "tend to increase levels of dissolved silver"}
    ]},
    {"compound": "Silver dimethylhydantoin [synthesized DMH/Ag complex]", "values": [
      {"measurement": "antimicrobial activity compared to the equivalent level of silver used alone", "setting": "microbial growth; synthesized complex", "value": "greater antimicrobial activity"},
      {"measurement": "control of microbial growth", "setting": "microbial growth; without added source of halide", "value": "has the potential to control microbial growth without the need for an added source of halide"}
    ]}
  ]
}
